Patent US20240209028A1, “CNP COMPOUNDS” (priority 2022, published 2024)
Read-outs that look alike come from different tables or passages of the source. Starred links: 1 amine or outer side, 2 acyl side, 3 side chain; linkers in the order of their positions; H or OH if unused. Positions of bridges follow the written chain, without caps; N, C: chain ends. Residues, ends and D or L forms follow the SMILES beside them. *: point of attachment. C18 diacid = O=C(O)CCCCCCCCCCCCCCCCC(=O)*; γGlu = O=C(O)[C@H](CCC(=O)[*:2])N[*:1]; AEEA = NCCOCCOCC(=O)O

Assay: PK after i.v. and s.c. administration to Göttingen minipig
Conditions: female, in vivo; for clearance: read-out: CL (ml/hr/kg), Intravenous PK (converted)
Procedure, shortened: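 Female Göttingen minipigs (6-12 months, ~22 kg) and domestic LYD pigs (4-5 months, ~80 kg) given CNP compounds i.v. (30-60 or 15-43 nmol/kg) or s.c. neck (55-62 or 20-30 nmol/kg) via catheter/pen. EDTA plasma sampled up to 14 days, CNP and cGMP by LC-MS; non-compartmental PK, F from dose-normalized AUC s.c./i.v.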

[1] = iv, Göttingen Minipig, i.v., read-out: T½, iv (converted)
[2] = sc, Göttingen Minipig, s.c. bioavailability, read-out: F (%), Subcutaneous PK
[3] = sc, Göttingen Minipig, s.c., read-out: T½, sc (converted)

| SMILES | clearance (iv, Göttingen Minipig, i.v.) [mL/h/kg] | half-life [1] [h] | bioavailability [2] [%] | half-life [3] [h] | bioavailability (Göttingen minipig and domestic LYD pig, minipig, sc) [%] |
| --- | --- | --- | --- | --- | --- |
| CC[C@H](C)[C@@H]1NC(=O)[C@H](CCCNC(=N)N)NC(=O)[C@H](CC(=O)O)NC(=O)[C@H](CC(C)C)NC(=O)[C@@H]2CCCN2C(=O)[C@H](CC(C)C)NC(=O)CNC(=O)[C@H](Cc2ccccc2)NC(=O)[C@@H](NC(=O)CNC(=O)[C@H](CCC(N)=O)NC(=O)[C@H](CO)NC(=O)CNC(=O)CNC(=O)[C@H](CCCCN)NC(=O)[C@H](CCCCN)NC(=O)[C@H](CCC(N)=O)NC(=O)[C@H](C)NC(=O)CNC(=O)[C@H](CCCCN)NC(=O)[C@H](Cc2ccc(O)cc2)NC(=O)COCCOCCNC(=O)COCCOCCNC(=O)COCCOCCNC(=O)COCCOCCNC(=O)CC[C@H](NC(=O)CC[C@H](NC(=O)CCCCCCCCCCCCCCCCC(=O)O)C(=O)O)C(=O)O)CSSC[C@@H](C(=O)O)NC(=O)CNC(=O)[C@H](CC(C)C)NC(=O)CNC(=O)[C@H](CO)NC(=O)[C@H](CC(C)C)NC(=O)[C@H](CO)NC(=O)CNC1=O [Compound 9435] ({C18 diacid-γGlu-γGlu-AEEA-AEEA-AEEA-AEEA}-YKGAQKKGGSQGCFGLPLDRIGSLSGLGC-OH; disulfide 13-29) | 1.02 | 77 | 77 | 82 | – |
| CC[C@H](C)[C@@H]1NC(=O)[C@H](CCCNC(=N)N)NC(=O)[C@H](CCC(=O)O)NC(=O)[C@H](CC(C)C)NC(=O)[C@H](CCCCN)NC(=O)[C@H](CC(C)C)NC(=O)CNC(=O)[C@H](Cc2ccccc2)NC(=O)[C@@H](NC(=O)CNC(=O)[C@H](CCCCN)NC(=O)[C@H](CO)NC(=O)[C@H](CC(C)C)NC(=O)CNC(=O)[C@H](CCCCN)NC(=O)[C@H](CCCCN)NC(=O)[C@H](CCC(N)=O)NC(=O)[C@H](C)NC(=O)CNC(=O)[C@H](CCCCN)NC(=O)[C@H](Cc2ccc(O)cc2)NC(=O)[C@H](CCCCN)NC(=O)[C@H](CCCNC(=N)N)NC(=O)[C@H](C)NC(=O)COCCOCCNC(=O)COCCOCCNC(=O)CC[C@H](NC(=O)CCCCCCCCCCCCCCCCC(=O)O)C(=O)O)CSSC[C@@H](C(=O)O)NC(=O)CNC(=O)[C@H](CC(C)C)NC(=O)CNC(=O)[C@H](CO)NC(=O)[C@H](CC(C)C)NC(=O)[C@H](CO)NC(=O)CNC1=O [compound 0776] ({C18 diacid-γGlu-AEEA-AEEA}-ARKYKGAQKKGLSKGCFGLKLERIGSLSGLGC-OH; disulfide 16-32) | – | – | – | – | 7 to 13 |
| CC[C@H](C)[C@@H]1NC(=O)[C@H](CCCNC(=N)N)NC(=O)[C@H](CC(=O)O)NC(=O)[C@H](CC(C)C)NC(=O)[C@@H]2CCCN2C(=O)[C@H](CC(C)C)NC(=O)CNC(=O)[C@H](Cc2ccccc2)NC(=O)[C@@H](NC(=O)CNC(=O)[C@H](CO)NC(=O)[C@H](CO)NC(=O)[C@H](CC(C)C)NC(=O)CNC(=O)[C@H](CCCCN)NC(=O)[C@H](CCCCN)NC(=O)[C@H](CCC(N)=O)NC(=O)[C@H](C)NC(=O)CNC(=O)[C@H](CCCCN)NC(=O)[C@H](Cc2ccc(O)cc2)NC(=O)[C@H](CCCCN)NC(=O)[C@H](CCCNC(=N)N)NC(=O)[C@H](C)NC(=O)[C@H](CCC(N)=O)NC(=O)[C@@H]2CCCN2C(=O)[C@H](Cc2c[nH]cn2)NC(=O)[C@H](CCC(=O)O)NC(=O)[C@H](CCC(N)=O)NC(=O)CC[C@H](NC(=O)CC[C@H](NC(=O)CC[C@H](NC(=O)CC[C@H](NC(=O)CC[C@H](NC(=O)CCCCCCCCCCCCCCCCC(=O)O)C(=O)O)C(=O)O)C(=O)O)C(=O)O)C(=O)O)CSSC[C@@H](C(=O)O)NC(=O)CNC(=O)[C@H](CC(C)C)NC(=O)CNC(=O)[C@H](CO)NC(=O)[C@H](CC(C)C)NC(=O)[C@H](CO)NC(=O)CNC1=O [Compound 9482] ({C18 diacid-γGlu-γGlu-γGlu-γGlu-γGlu}-QEHPQARKYKGAQKKGLSSGCFGLPLDRIGSLSGLGC-OH; disulfide 21-37) | 1.07 | 89 | 89 | 84 | – |
